Experimental data reported in patent publication US20230114728A1 (Venatorx Pharmaceuticals, Inc., priority 2019, published 2023).
In brackets after ≈: the same amount, converted by molar mass.

How the values were obtained:
Test in all cases: Broth microdilution MIC in iron-depleted CAMHB (IDM)
Assay type in all cases: cell-based
A. baumannii ATCC 17978 = settings: Acinetobacter baumannii, ATCC17978, read-out: Minimum Inhibitory Concentration, ATCC 17978
Method in brief: (§1)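 CLSI broth microdilution in iron-depleted CAMHB (Chelex 100-treated, Ca, Mg and 10 μM Zn re-added, pH 7.3). Inoculum was 2-8×10^5 CFU/mL from 3-5 h IDM cultures. Plates were incubated at 37° C for 20-24 h (Acinetobacter) or 16-20 h (Pseudomonas), and MIC was read visually as the lowest concentration without growth.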

[1] = tested on: A. baumannii CDC-0033 producing NDM-1, and OXA-94; settings: Acinetobacter baumannii, read-out: Minimum Inhibitory Concentration, CDC-0033
Method in brief: as §1

[2] = tested on: A. baumannii CDC-0036 OXA-65, and OXA-24; settings: Acinetobacter baumannii, read-out: Minimum Inhibitory Concentration, CDC-0036
Method in brief: as §1

[3] = tested on: A. baumannii CDC-0083 producing NDM-1, PER-7, OXA-23, and OXA-69; settings: Acinetobacter baumannii, read-out: Minimum Inhibitory Concentration, CDC-0083
Method in brief: as §1

[4] = tested on: P. aeruginosa (ΔmexAB-oprM); settings: Pseudomonas aeruginosa, read-out: Minimum Inhibitory Concentration, P. aeruginosa ΔmexAB-OprM
Method in brief: as §1

P. aeruginosa ATCC 35151 = settings: Pseudomonas aeruginosa, ATCC35151; iron-depleted MHB (IDM); hyper-permeable strain; read-out: Minimum Inhibitory Concentration, P. aeruginosa ATCC 35151
Method in brief: as §1

[5] = tested on: P. aeruginosa CDC-0090 producing KPC-5, OXA-50, and PAO; settings: Pseudomonas aeruginosa, read-out: Minimum Inhibitory Concentration, P. aeruginosa CDC-0090
Method in brief: as §1

[6] = tested on: A. baumannii CDC-0045 producing TEM-1D, OXA-23, and OXA-69; settings: Acinetobacter baumannii, read-out: Minimum Inhibitory Concentration, CDC-0045

Compound	MIC (A. baumannii ATCC 17978) [µg/mL]	MIC [1] [µg/mL]	MIC [2] [µg/mL]	MIC [3] [µg/mL]	MIC [4] [µg/mL]	MIC (P. aeruginosa ATCC 35151) [µg/mL]	MIC [5] [µg/mL]	MIC [6] [µg/mL]
CS(=O)(=O)N1CCN(C(=O)N[C@@H](C(=O)N[C@H]2Cc3ccc(F)c(C(=O)O)c3OB2O)c2cc(F)c(O)c(O)c2Cl)C1=O (single isomer, unassigned) [Example 189]	0.25 (≈ 0.395 µM)	2 to 4 (≈ 3.16 to 6.32 µM)	2 to 4 (≈ 3.16 to 6.32 µM)	32 to 64 (≈ 50.6 to 101 µM)	0.25 (≈ 0.395 µM)	0.25 (≈ 0.395 µM)	0.5 to 1 (≈ 0.79 to 1.58 µM)	2 to 4 (≈ 3.16 to 6.32 µM)
CCN1CCN(C(=O)N[C@@H](C(=O)N[C@H]2Cc3ccc(F)c(C(=O)O)c3OB2O)c2c(Cl)cc(O)c(O)c2F)C(=O)C1=O (single isomer, unassigned) [Example 207]	0.5 to 1 (≈ 0.819 to 1.64 µM)	32 to 64 (≈ 52.4 to 105 µM)	2 to 4 (≈ 3.27 to 6.55 µM)	> 128	2 to 4 (≈ 3.27 to 6.55 µM)	0.25 (≈ 0.409 µM)	2 to 4 (≈ 3.27 to 6.55 µM)	> 128
O=C(NCCCN1CCN(C(=O)NC(C(=O)N[C@H]2Cc3cccc(C(=O)O)c3OB2O)c2ncc(O)cc2F)C(=O)C1=O)c1ccc(O)c(O)c1Cl (stereo partly drawn) [Example 1, (3R)-3-(2-(4-(3-(2-chloro-3,4-dihydroxybenzamido)propyl)-2,3-dioxopiperazine-1-carboxamido)-2-(3-fluoro-5-hydroxypyridin-2-yl)acetamido)-2-hydroxy-3,4-dihydro-2H-benzo[e][1,2]oxaborinine-8-carboxylic acid]					2 to 4 (≈ 2.69 to 5.38 µM)	0.5 to 1 (≈ 0.673 to 1.35 µM)		
C[C@H]1CN(CCNC(=O)c2ccc(O)c(O)c2Cl)C(=O)C(=O)N1C(=O)NC(C(=O)N[C@H]1Cc2cccc(C(=O)O)c2OB1O)c1ncc(O)cc1F (stereo partly drawn) [Example 2, (3R)-3-(2-((S)-4-(2-(2-chloro-3,4-dihydroxybenzamido)ethyl)-6-methyl-2,3-dioxopiperazine-1-carboxamido)-2-(3-fluoro-5-hydroxypyridin-2-yl)acetamido)-2-hydroxy-3,4-dihydro-2H-benzo[e][1,2]oxaborinine-8-carboxylic acid]	0.5 to 1 (≈ 0.673 to 1.35 µM)	8 to 16 (≈ 10.8 to 21.5 µM)	32 to 64 (≈ 43.1 to 86.2 µM)	8 to 16 (≈ 10.8 to 21.5 µM)	0.25 (≈ 0.337 µM)	0.25 (≈ 0.337 µM)	2 to 4 (≈ 2.69 to 5.38 µM)	2 to 4 (≈ 2.69 to 5.38 µM)
O=C(NCCCN1CCN(C(=O)NC(C(=O)N[C@H]2Cc3ccc(F)c(C(=O)O)c3OB2O)c2ncc(O)cc2F)C(=O)C1=O)c1ccc(O)c(O)c1Cl (stereo partly drawn) [Example 3, (3R)-3-(2-(4-(3-(2-chloro-3,4-dihydroxybenzamido)propyl)-2,3-dioxopiperazine-1-carboxamido)-2-(3-fluoro-5-hydroxypyridin-2-yl)acetamido)-7-fluoro-2-hydroxy-3,4-dihydro-2H-benzo[e][1,2]oxaborinine-8-carboxylic acid]	8 to 16 (≈ 10.5 to 21 µM)	32 to 64 (≈ 42.1 to 84.1 µM)	32 to 64 (≈ 42.1 to 84.1 µM)	32 to 64 (≈ 42.1 to 84.1 µM)	0.5 to 1 (≈ 0.657 to 1.31 µM)	0.25 (≈ 0.329 µM)	8 to 16 (≈ 10.5 to 21 µM)	32 to 64 (≈ 42.1 to 84.1 µM)
Nc1nc(C(NC(=O)N2CCN(CCNC(=O)c3ccc(O)c(O)c3Cl)C(=O)C2=O)C(=O)N[C@H]2Cc3ccc(F)c(C(=O)O)c3OB2O)c(F)s1 (stereo partly drawn) [Example 4, (3R)-3-(2-(2-amino-5-fluorothiazol-4-yl)-2-(4-(2-(2-chloro-3,4-dihydroxybenzamido)ethyl)-2,3-dioxopiperazine-1-carboxamido)acetamido)-7-fluoro-2-hydroxy-3,4-dihydro-2H-benzo[e][1,2]oxaborinine-8-carboxylic acid]	0.25 (≈ 0.333 µM)	32 to 64 (≈ 42.6 to 85.1 µM)	32 to 64 (≈ 42.6 to 85.1 µM)	32 to 64 (≈ 42.6 to 85.1 µM)	0.25 (≈ 0.333 µM)	0.25 (≈ 0.333 µM)	0.25 (≈ 0.333 µM)	2 to 4 (≈ 2.66 to 5.32 µM)
O=C(NCCN1CCN(C(=O)NC(C(=O)N[C@H]2Cc3ccc(F)c(C(=O)O)c3OB2O)c2ncc(O)cc2F)C(=O)C1=O)c1c(F)cc(O)c(O)c1Cl (stereo partly drawn) [Example 5, (3R)-3-(2-(4-(2-(2-chloro-6-fluoro-3,4-dihydroxybenzamido)ethyl)-2,3-dioxopiperazine-1-carboxamido)-2-(3-fluoro-5-hydroxypyridin-2-yl)acetamido)-7-fluoro-2-hydroxy-3,4-dihydro-2H-benzo[e][1,2]oxaborinine-8-carboxylic acid]	0.25 (≈ 0.327 µM)	2 to 4 (≈ 2.61 to 5.23 µM)	32 to 64 (≈ 41.8 to 83.7 µM)	32 to 64 (≈ 41.8 to 83.7 µM)	0.25 (≈ 0.327 µM)	0.25 (≈ 0.327 µM)	0.25 (≈ 0.327 µM)	2 to 4 (≈ 2.61 to 5.23 µM)
Nc1nc(/C(=N/OC[C@H](NC(=O)c2ccc(O)c(O)c2Cl)C(=O)O)C(=O)N[C@H]2Cc3cccc(C(=O)O)c3OB2O)cs1 [Example 6, (R)-3-((Z)-2-(2-aminothiazol-4-yl)-2-(((S)-2-carboxy-2-(2-chloro-3,4-dihydroxybenzamido)ethoxy)imino)acetamido)-2-hydroxy-3,4-dihydro-2H-benzo[e][1,2]oxaborinine-8-carboxylic acid]	8 to 16 (≈ 12.6 to 25.2 µM)	32 to 64 (≈ 50.5 to 101 µM)	32 to 64 (≈ 50.5 to 101 µM)	32 to 64 (≈ 50.5 to 101 µM)	0.5 to 1 (≈ 0.789 to 1.58 µM)	0.25 (≈ 0.394 µM)	0.5 to 1 (≈ 0.789 to 1.58 µM)	32 to 64 (≈ 50.5 to 101 µM)
NCCCN1CCN(C(=O)N[C@@H](C(=O)N[C@H]2Cc3cc(Cl)c(F)c(C(=O)O)c3OB2O)c2c(F)cc(O)c(O)c2Cl)C(=O)C1=O [Example 190, (R)-3-((R)-2-(4-(3-aminopropyl)-2,3-dioxopiperazine-1-carboxamido)-2-(2-chloro-6-fluoro-3,4-dihydroxyphenyl)acetamido)-6-chloro-7-fluoro-2-hydroxy-3,4-dihydro-2H-benzo[e][1,2]oxaborinine-8-carboxylic acid]	8 to 16 (≈ 11.9 to 23.7 µM)	> 128	> 128	> 128	0.25 (≈ 0.371 µM)	0.5 to 1 (≈ 0.742 to 1.48 µM)	0.5 to 1 (≈ 0.742 to 1.48 µM)	> 128
CCN1CCN(C(=O)N[C@@H](C(=O)N[C@H]2Cc3cc(Cl)c(F)c(C(=O)O)c3OB2O)c2c(F)cc(O)c(O)c2Cl)C(=O)C1=O [Example 191, (R)-6-chloro-3-((R)-2-(2-chloro-6-fluoro-3,4-dihydroxyphenyl)-2-(4-ethyl-2,3-dioxopiperazine-1-carboxamido)acetamido)-7-fluoro-2-hydroxy-3,4-dihydro-2H-benzo[e][1,2]oxaborinine-8-carboxylic acid]	2 to 4 (≈ 3.1 to 6.2 µM)	> 128	32 to 64 (≈ 49.6 to 99.2 µM)	> 128	0.25 (≈ 0.387 µM)	0.25 (≈ 0.387 µM)	8 to 16 (≈ 12.4 to 24.8 µM)	> 128
CS(=O)(=O)N1CCN(C(=O)NC(C(=O)N[C@H]2Cc3ccc(F)c(C(=O)O)c3OB2O)c2c(Cl)cc(O)c(O)c2F)C1=O (stereo partly drawn) [Example 208, (3R)-3-(2-(6-chloro-2-fluoro-3,4-dihydroxyphenyl)-2-(3-(methylsulfonyl)-2-oxoimidazolidine-1-carboxamido)acetamido)-7-fluoro-2-hydroxy-3,4-dihydro-2H-benzo[e][1,2]oxaborinine-8-carboxylic acid]	0.5 to 1 (≈ 0.79 to 1.58 µM)	32 to 64 (≈ 50.6 to 101 µM)	8 to 16 (≈ 12.6 to 25.3 µM)	> 128	2 to 4 (≈ 3.16 to 6.32 µM)	0.25 (≈ 0.395 µM)	2 to 4 (≈ 3.16 to 6.32 µM)	> 128
NCCN1CCN(C(=O)N[C@@H](C(=O)N[C@H]2Cc3ccc(F)c(C(=O)O)c3OB2O)c2c(F)c(F)c(O)c(O)c2Cl)C(=O)C1=O [Example 226, (R)-3-((R)-2-(4-(2-aminoethyl)-2,3-dioxopiperazine-1-carboxamido)-2-(2-chloro-5,6-difluoro-3,4-dihydroxyphenyl)acetamido)-7-fluoro-2-hydroxy-3,4-dihydro-2H-benzo[e][1,2]oxaborinine-8-carboxylic acid]	0.5 to 1 (≈ 0.777 to 1.55 µM)	8 to 16 (≈ 12.4 to 24.9 µM)	8 to 16 (≈ 12.4 to 24.9 µM)	2 to 4 (≈ 3.11 to 6.21 µM)	2 to 4 (≈ 3.11 to 6.21 µM)	0.25 (≈ 0.388 µM)		8 to 16 (≈ 12.4 to 24.9 µM)
